Data set [1] relates to AR target gene expression. The data set is described as follows: AR target gene expression with GR antagonists. Type of data set: cell-based.
For data set [2] the following is noted: in vivo; cited from earlier work.
The conditions of data set [3]: list continues over r20-r28; cited from earlier work.
In data set [4] the test system is LNCaP/AR xenograft tumors. The data set is described as follows: LNCaP/AR xenograft pilot cohort, continual antiandrogen treatment until acquired resistance.
The test system of data set [5] is PSA. Briefly: Maximal PSA decline in patients receiving enzalutamide. Type of data set: in vivo. Conditions: enzalutamide 160 mg daily. Here is the method:
Patients were treated with enzalutamide 160 mg daily. Bone marrow biopsy and aspirate (˜5 mL) were performed before treatment and at week 8. The bone marrow specimens were obtained by transiliac biopsy, and samples were processed according to standard MD Anderson Cancer Center decalcification and fixation procedures. After pathologic evaluation, samples were stored in the MD Anderson Cancer Center Prostate Cancer Tissue Bank. Imaging studies were performed at the time of suspected prostate cancer progression or at the treating physician's discretion, but generally not prior to 12 weeks post-treatment initiation. […] Retrospective analysis for GR was performed by IHC on […] formalin-fixed, paraffin-embedded bone marrow biopsy sections with anti-GR at a dilution of 1:200 (BD Transduction Laboratories #611227). A Dako autostainer and standard 3,3-diaminobenzidine were used. GR expression was assessed in a blinded fashion by two pathologists scoring at least 100 tumor cells per specimen. […]
To determine whether GR expression is a feature of clinical antiandrogen resistance, GR expression was evaluated in bone metastases from patients receiving enzalutamide. […] Using a GR IHC assay optimized for use in bone marrow samples, the percentage of GR-positive tumor cells was quantified and the data was dichotomized based on clinical response. […]

Data set [6] concerns AR target genes in LREX′ cells. The data set is described as follows: Expression of AR target genes in LREX′ cell line in steroid depleted media (RT-qPCR). Type of data set: cell-based, human. An excerpt:
A. Normalized expression array signal (Illumina HT-12) of a suite of 74 AR target genes in control (n=10), 4 day (n=8), and LREX′ (n=8, right) xenograft tumors. Genes are ranked by degree of restoration of expression in resistant tissue ((Res-4 day)/(Control-4 day)). All resistant tissues were continued on anti-androgen treatment through time of harvest. B. Fractional restoration values of each of the 74 AR targets in LREX′ xenografts (n=8) or resistant tissues from the validation cohort (n=12). C. GR mRNA in resistant tissues used in B. D. Expression of AR target genes in the LREX′ cell line in steroid depleted media after 8 hours of treatment with the indicated agonists, in vitro. […] A. LnCaP/AR cells engineered to express GFP or GR were treated with indicated drugs. […] D. Control or AR siRNA knock-down in LREX′ followed by treatment with indicated drugs. […] Cells were treated in charcoal stripped media. Expression determined by RT-qPCR+/−s.e.m.
LREX′ cells were derived from a single enzalutamide resistant tumor that was harvested, disaggregated with collagenase treatment, and then maintained in RPMI supplemented with 20% FBS and 1 μM enzalutamide. Cells were initially grown on collagen-coated flasks until confluent and then were maintained on standard tissue culture dishes. CS1 were similarly derived from vehicle treated tumors and maintained in standard LNCaP/AR media. LNCaP/AR and LREX′ cells were cultured in phenol-red free RPMI with 10% charcoal-stripped FBS prior to drug treatments.
A general note: Quantitative PCR measures a nucleic acid by following its amplification.

Data set [7] relates to LREX′ cells transcriptome. Briefly: Expression profiling of LREX′ cells after DHT or Dex, AR and GR signatures. The conditions noted are these: enzalutamide 10 micromolar. Type of data set: cell-based, human.
Data set [8] deals with VCaP cells. Briefly: VCaP cell viability by CellTiter-Glo. The format is cell-based. The conditions noted are these: Enz 10 micromolar, standard culture conditions. The protocol:
Enz=10 micromolar, Dex=100 nM, CMP 15=1 micromolar. A. Western blot analysis of prostate cancer cell lines. B, C and D. Cell viability assessed by CellTiter-Glo (Promega) assay and normalized to day 1 value after indicated treatments+/−s.e.m. E. Confirmation of GR knock-down by western blot after infection with GR targeting shRNA. F. Apoptosis as assessed by cPARP western blot after 3 days of indicated treatment. G. A suite of AR targets relevant to VCaP was defined (see methods) and normalized expression of each gene after 24 hours of indicated drug treatments is depicted by heat map and ranked by degree of induction with Dex. H. Expression of the top two genes from B. (KLK2 and FKBP5) after 24 hours of indicated treatments+/−s.e.m.
VCaP: Cells were plated in triplicate and then assayed in triplicate at the time points indicated using CellTiter-Glo (Promega). Viability is plotted normalized to day 1. For knockdown studies, cells were infected and then plated 3 days later for the experiment without prior drug selection. LnCaP/AR and sub-lines: Equivalent numbers of cells were plated and then harvested and counted in triplicate at indicated time points using the Beckman Coulter Vi-Cell XR. Cells were passaged at each time point and identical numbers of cells re-plated. Fold increase in cell numbers were determined for each time interval. […]

The subject of data set [9] is GR mRNA in LREX′ cells. Briefly: GR mRNA in LREX′ cells cultured in vitro. Type of data set: cell-based, human.
For data set [10], the system named is LnCaP/AR and sub-lines. The data set is described as follows: In vitro growth by cell counting (Vi-cell). The format is cell-based. The conditions noted are these: 1 micromolar enzalutamide. Here is the method: . […] C. […] AUC=area under curve. […] .
VCaP: Cells were plated in triplicate and then assayed in triplicate at the time points indicated using CellTiter-Glo (Promega). Viability is plotted normalized to day 1. For knockdown studies, cells were infected and then plated 3 days later for the experiment without prior drug selection. LnCaP/AR and sub-lines: Equivalent numbers of cells were plated and then harvested and counted in triplicate at indicated time points using the Beckman Coulter Vi-Cell XR. Cells were passaged at each time point and identical numbers of cells re-plated. Fold increase in cell numbers were determined for each time interval.

For data set [11] the following is noted: mouse, in vivo; cited from earlier work.
In data set [12] the test system is GR protein in CS1 or LnCaP/AR cells. Briefly: Intracellular GR flow cytometry of CS1 and LnCaP/AR cells under enzalutamide. Conditions: enzalutamide 1 micromolar, 4 week experiment.
Method: (§1) Cells were re-suspended in Fixation/Permeabilization working solution (eBioscience; San Diego, Calif., USA) at a concentration of 1-2×10^6 cells/ml for 30 minutes at room temperature. The cells were subsequently stained with primary antibodies, Rabbit (DA1E) mAb IgG XP® Isotype Control, androgen receptor (D6F11) XP® Rabbit mAb, or glucocorticoid receptor (D6H2L) XP® Rabbit mAb (Cell Signaling Technology; Danvers, Mass., USA) for 20 minutes at room temperature. The cells were washed twice with Flow Cytometry Staining Buffer (eBioscience; San Diego, Calif., USA), and then stained with secondary antibody, Allophycocyanin-AffiniPure F(ab′)2 Fragment Donkey Anti-Rabbit IgG (Jackson ImmunoResearch Laboratories, Inc.; Westgrove, Pa., USA) for 20 minutes at room temperature. Following two more washes, the cells were re-suspended in Flow Cytometry Staining Buffer and analyzed by flow cytometry on a LSRII (BD Biosciences; San Jose, Calif., USA) using FlowJo software (Tree Star, Ashland, Oreg., USA). For GR staining, cells were maintained in their standard media and treated with dexamethasone for 20 minutes prior to harvest to fully expose antigen. For AR staining, cells were cultured in charcoal stripped media without added ligands for 3 days prior to harvest.
Data set [13] has as its system GR protein in LREX′ cells. The data set is described as follows: Intracellular GR flow cytometry of LREX′ cells on enzalutamide withdrawal and re-exposure. The conditions noted are these: LREX′off cells re-exposed to enzalutamide 1 micromolar.
Method: as §1
The target of data set [14] is GR (Homo sapiens, UniProt P04150). The conditions noted are these: patients with Cushing syndrome; cited from earlier work.
The mark [15] stands for this setting: harvest after progression on continued treatment.
The mark [16] stands for this setting: steroid depleted media, 8 hours.

The values below come from patent publication US10919929B2, “Glucocorticoid inhibitors for treatment of prostate cancer” (Sloan-Kettering Institute for Cancer Research, priority 2013, dated 2021).

Structures are written as SMILES.

Sequence of GR (P04150 whole entry): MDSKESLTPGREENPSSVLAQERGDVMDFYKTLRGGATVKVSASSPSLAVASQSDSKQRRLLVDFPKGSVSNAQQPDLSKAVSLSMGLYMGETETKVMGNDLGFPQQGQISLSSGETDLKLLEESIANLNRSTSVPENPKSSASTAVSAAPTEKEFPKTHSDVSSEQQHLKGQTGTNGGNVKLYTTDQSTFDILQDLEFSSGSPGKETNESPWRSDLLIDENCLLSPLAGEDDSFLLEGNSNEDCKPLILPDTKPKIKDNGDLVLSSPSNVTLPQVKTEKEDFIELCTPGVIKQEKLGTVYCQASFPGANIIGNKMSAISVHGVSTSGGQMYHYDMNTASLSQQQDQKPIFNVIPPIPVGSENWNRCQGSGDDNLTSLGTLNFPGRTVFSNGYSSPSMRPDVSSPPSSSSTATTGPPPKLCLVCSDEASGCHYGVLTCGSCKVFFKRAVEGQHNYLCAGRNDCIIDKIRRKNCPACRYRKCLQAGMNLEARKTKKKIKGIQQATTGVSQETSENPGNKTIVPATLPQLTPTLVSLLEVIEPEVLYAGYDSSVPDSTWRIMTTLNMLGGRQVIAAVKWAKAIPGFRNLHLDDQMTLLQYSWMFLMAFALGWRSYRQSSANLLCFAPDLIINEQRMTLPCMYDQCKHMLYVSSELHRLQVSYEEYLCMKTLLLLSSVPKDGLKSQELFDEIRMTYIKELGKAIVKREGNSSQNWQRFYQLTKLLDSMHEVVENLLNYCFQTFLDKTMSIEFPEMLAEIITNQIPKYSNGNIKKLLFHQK

In the case of `CC#C[C@]1(O)CC[C@H]2[C@@H]3CCC4=CC(=O)CCC4=C3[C@@H](c3ccc4c(c3)OCO4)C[C@@]21C` [ORG 34517], in [1], the “AR target gene expression” value is reported as “activate AR target gene expression”.
Consider `CC(C)C(=O)Nc1ccc([N+](=O)[O-])c(C(F)(F)F)c1` [flutamide], for which, in data set [2], the “Distribution: Protein-binding” value was “Distribution: Protein-binding: 90%” and the Excretion result is given as “Urine, faeces (small amounts)”. The “Adverse Drug Reactions” value in data set [3] is given as “Hot flushes, loss of libido, impotence,”.
On to `CNC(=O)c1ccc(N2C(=S)N(c3ccc(C#N)c(C(F)(F)F)c3)C(=O)C23CCC3)cc1F` [RD162], for which, in data set [4] (LNCaP/AR xenografts in castrate mice, 10 mg/kg oral, day 28), the “% Regression: D 28 Mean” value stood at 80%. Also, in data set [4] (setting [15]), the “Day of Harvest: Mean” value is on record as “D173” and the “Mean Tumor Volume (mm^3) at harvest” value was found to be 554 mm^3.
With `CNC(=O)c1ccc(N2C(=S)N(c3ccc(C#N)c(C(F)(F)F)c3)C(=O)C2(C)C)cc1F` [enzalutamide], the “patients with maximal PSA decline greater than 50%” value was 11 of 13 in [5] (good responders (benefit > 6 months)) and 1 of 14 in [5] (poor responders (discontinued < 6 months)). Besides, the “effect on DHT regulation of 8 AR target genes” value in [6] (enzalutamide 10 micromolar) was “blocked”. The “effect on Dex activity” value in data set [6] (enzalutamide 10 micromolar) is “did not notably affect”. The “effect on Dex-induced gene expression (heatmap)” value in data set [7] is reported as “not impacted”. For the same compound, the “growth of VCaP cells” value in [8] is given as “inhibited growth”. Moreover, the “GR mRNA levels after enzalutamide withdrawal in vitro” value in [9] (LREX′ cells, FBS media without enzalutamide, 23 days) is given as “dropped as early as 1 day after discontinuation”. Further, the “effect of co-treatment on DHT reduction of GR mRNA” value in [9] (LREX′, 10 micromolar enzalutamide, 8 hours) is “reversed”. Besides, in data set [10], the “antiproliferative effect in vitro” value is “weak antiproliferative effect”. Further, the half-life in mice entry in data set [11] is recorded as “prolonged half-life”. For the same compound, the “median GR expression intensity” value in data set [12] was “no change in median expression intensity”. The “doubling time of GR expression induction” value in data set [13] was determined as 6.8 days.
Turning to `CC#C[C@]1(O)CC[C@H]2[C@@H]3CCC4=CC(=O)CCC4=C3[C@@H](c3ccc(N(C)C)cc3)C[C@@]21C` [RU486, RU-486], the “risk-benefit profile of GR inhibition in humans” value in data set [14] is on record as “acceptable risk-benefit profile”.
Consider `C[C@]12CCC(=O)C[C@@H]1CC[C@@H]1[C@@H]2CC[C@]2(C)[C@@H](O)CC[C@@H]12` [DHT, dihydrotestosterone], for which, in [6] (setting [16]), the “induction of KLK3 (PSA)” value is “comparably induced”; the “regulation of 8 genes (7 AR targets and PSA)” value is given as “regulated”. Further, the “GR mRNA levels” value in [9] (LREX′, charcoal stripped media, 8 hours DHT exposure) is listed as “reduced GR mRNA levels”.
